For 28 molecules, IC50 results are on record in patent US20260297065A1, “AROMATIC SUBSTITUENT-CONTAINING (HETERO) ARYL-IMIDAZOLE COMPOUND, AND PREPARATION METHOD THEREFOR AND USE THEREOF” (OPEN SOURCE THERAPEUTICS, priority 2022, published 2026).

The target of this assay is T1, soluble epoxide hydrolase (sEH) (Homo sapiens, UniProt P34913).
T1 sequence (P34913 1-555): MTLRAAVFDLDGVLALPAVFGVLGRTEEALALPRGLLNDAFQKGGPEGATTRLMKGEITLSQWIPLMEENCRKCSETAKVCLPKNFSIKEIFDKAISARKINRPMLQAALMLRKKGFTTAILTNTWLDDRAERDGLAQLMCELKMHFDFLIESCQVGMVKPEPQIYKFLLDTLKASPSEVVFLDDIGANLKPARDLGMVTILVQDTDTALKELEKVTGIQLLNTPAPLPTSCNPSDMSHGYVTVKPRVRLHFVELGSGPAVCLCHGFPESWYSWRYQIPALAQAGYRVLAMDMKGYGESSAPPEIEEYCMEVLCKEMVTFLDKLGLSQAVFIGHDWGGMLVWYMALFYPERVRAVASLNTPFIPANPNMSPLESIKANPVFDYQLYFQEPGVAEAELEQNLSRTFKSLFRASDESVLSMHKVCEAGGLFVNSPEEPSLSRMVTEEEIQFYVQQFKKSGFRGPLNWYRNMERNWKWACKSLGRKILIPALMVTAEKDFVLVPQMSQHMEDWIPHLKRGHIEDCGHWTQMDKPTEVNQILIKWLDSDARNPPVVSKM
Description: in vitro biochemical activity test, sEH enzyme inhibition with EET substrate (LC-MS). Particulars: 90 min pre-incubation at room temperature, 60 min reaction. How it is done: This example relates to the relationship between the structure and activity of (hetero)aryl imidazole compounds containing an aromatic substituent. Specifically, the biochemical activity of the (hetero)aryl imidazole compounds containing an aromatic substituent described in Example 1 as sEH enzyme inhibitors was evaluated by in vitro activity test experiments.
The experimental procedures for evaluating in vitro biochemical activity were described below.
The substrate used in the evaluation experiment was epoxyeicosatrienoic acid (EET). The solutions used in the evaluation experiments were Bis/Tris HCl 25 mM pH 7.0, Bis/Tris HCl 25 mM pH 7.0 containing 0.1 mg/mL BSA was used as buffer A, and Bis/Tris HCl 25 mM pH 7.0 containing 36.3 mM ZnSO4 was used as buffer B.
The specific steps of the evaluation experiment were as follows. 79 μL of buffer A was added to each well in a black 96-well plate and then 1 μL solution of the aromatic substituent-containing (hetero)aryl imidazole compound was added. Then, 10 μL sEH (1 μM) buffer A solution was added to the wells. After pre-incubation at room temperature for 90 min, 10 μL EET (10 μM) buffer A solution was added to trigger the reaction. After the mixture was allowed to react […] for 60 min, 15 μL buffer B and 180 μL acetonitrile were added to quench the reaction, followed by high-speed centrifugation and filtration for later use.
LC-MS was used to detect the concentration of EET in the samples. The final IC50 was calculated based on three independent experiments using Graphpad Prism software.

For orientation: IC50 means the concentration at which inhibition is half-maximal. A lower IC50 goes with higher potency. As to `CN(C)S(=O)(=O)c1ccc(-c2nc3cc(-c4ccncc4Cl)c(F)cc3[nH]2)cc1` [Compound 1, 4-(6-(3-chloropyridin-4-yl)-5-fluoro-1H-benzo[d]imidazol-2-yl)-N,N-dimethylbenzene-sulfonamide], the midpoint of inhibition, the IC50, lay at 0.11 nM. That is a sub-nanomolar value. For `COc1ccc(-c2nc3cc(-c4ccncc4Cl)c(F)cc3[nH]2)cc1F` [Compound 2, 6-(3-chloropyridin-4-yl)-5-fluoro-2-(3-fluoro-4-meth-oxyphenyl)-1H-benzo[d] imidazole], the midpoint of inhibition, the IC50, lay at 11 nM. The value for `Cc1ccc(-c2cc3nc(-c4ccc(C(=O)N5CCC[C@@H](C(N)=O)C5)cc4)[nH]c3cc2F)c(Cl)n1` [Compound 3, (R)-1-(4-(6-(2-chloro-6-meth-ylpyridin-3-yl)-5-fluoro-1H-benzo[d]imidazol-2-yl)benzo-yl)piperidine-3-carboxamide] was 7.6 nM; that for `Cc1ncc(-c2cc3nc(-c4ccc(S(C)(=O)=O)cc4)[nH]c3cc2Cl)c(Cl)n1` [Compound 4, 5-chloro-6-(4-chloro-2-meth-ylpyrimid-5-yl)-2-(4-(methyl-sulfonyl)phenyl)-1H-benzo[d] imidazole] was 0.99 nM.

In the case of `Cc1ncc(-c2cc3nc(-c4ccc(C(F)(F)F)cc4)[nH]c3c(F)c2F)c(C)n1` [Compound 5], the half-maximal inhibitory concentration (IC50) was determined as 0.074 nM. As to `CNc1nc(C)ncc1-c1cc2nc(-c3ccc(C(F)(F)F)cc3)[nH]c2cc1F` [Compound 7, 5-(5-fluoro-2-(4-(trifluoro-methyl)phenyl)-1H-benzo[d]imidazol-6-yl)-N,2-dimethyl-pyrimidine-4-amine], the IC50 stood at 0.11 nM. As for `Cc1nc(N(C)C)ncc1-c1cc2nc(-c3ccc(C(F)(F)F)cc3)[nH]c2cc1F` [Compound 9, 5-(5-fluoro-2-(4-(trifluoro-methyl)phenyl)-1H-benzo[d]imidazol-6-yl)-N,N,4-trimeth-ylpyrimidine-2-amine], the figure is 0.11 nM. The molecule `Cc1cnccc1-c1cc2nc(-c3ccc(C(F)F)cc3)[nH]c2cc1F` [Compound 11, 2-(4-(difluoromethyl)phenyl)-5-fluoro-6-(3-methylpyridin-4-yl)-1H-benzo[d]imidazole] returned a half-inhibitory concentration (IC50) of 0.14 nM.

On to `Cc1ccc(-c2cc3nc(-c4ccc(C(F)(F)F)cc4)[nH]c3cc2F)c(Cl)n1` [Compound 12, 6-(2-chloro-6-methylpyridin-3-yl)-5-fluoro-2-(4-(trifluoro-methyl)phenyl)-1H-benzo[d] imidazole], for which half-maximal inhibition (IC50) required 0.058 nM. In turn, `Cc1cc(-c2cc3nc(-c4ccc(C(F)(F)F)cc4)[nH]c3cc2F)n(C)n1` [Compound 13, 6-(1,3-dimethyl-1H-pyrazol-5-yl)-5-fluoro-2-(4-(trifluoro-methyl)phenyl)-1H-benzo[d] imidazole] came in with an IC50 of 0.4 nM.

Turning to `Cc1ncc(-c2ccc3[nH]c(-c4ccc(C(F)(F)F)cc4)nc3c2F)cn1` [Compound 14, 7-fluoro-6-(2-methylpyrimid-5-yl)-2-(4-(trifluoromethyl)-phenyl)-1H-benzo[d]imidazole], the midpoint of inhibition, the IC50, lay at 0.94 nM. The value for `Cc1ccc(-c2cc3nc(-c4ccc(C(F)(F)F)cc4)[nH]c3cc2F)cn1` [Compound 15, 5-fluoro-6-(6-methylpyridin-3-yl)-2-(4-(trifluoromethyl)-phenyl)-1H-benzo[d]imidazole] was 0.62 nM; that for `Fc1cc2[nH]c(-c3ccc(C(F)(F)F)cc3)nc2cc1-c1cnc(N2CCOCC2)nc1` [Compound 16, 4-(5-(5-fluoro-2-(4-(trifluoro-methyl)phenyl)-1H-benzo[d]imidazol-6-yl)pyrimidine-2-yl)morpholine] was 0.14 nM; that for `CN1CCN(c2ncc(-c3cc4nc(-c5ccc(C(F)(F)F)cc5)[nH]c4cc3F)cn2)CC1` [Compound 17, 5-fluoro-6-(2-(4-methylpiper-azine-1-yl)pyrimid-5-yl)-2-(4-(trifluoromethyl)phenyl)-1H-benzo[d]imidazole] was 4.8 nM.

With `CC(C)n1nccc1-c1cc2nc(-c3ccc(S(C)(=O)=O)cc3)[nH]c2cc1F` [Compound 19, 5-fluoro-6-(1-isopropyl-1H-pyrazol-5-yl)-2-(4-(methyl-sulfonyl)phenyl)-1H-benzo[d] imidazole], the IC50 worked out at 0.98 nM.

`CS(=O)(=O)c1ccc(-c2nc3cc(-c4cnc(N5CCOCC5)nc4)c(F)cc3[nH]2)cc1` [Compound 20, 4-(5-(5-fluoro-2-(4-(methyl-sulfonyl)phenyl)-1H-benzo[d]imidazol-6-yl)pyrimidine-2-yl)morpholine] yielded an IC50 of 2.21 nM. This IC50 lies about 2.3-fold higher than the previous one. The value for `CC(C)n1nccc1-c1cc2nc(-c3ccc(S(=O)(=O)N(C)C)cc3)[nH]c2cc1F` [Compound 21, 4-(5-fluoro-6-(1-isopropyl-1H-pyrazol-5-yl)-1H-benzo[d]imidazol-2-yl)-N,N-dimethyl-benzenesulfonamide] was 0.051 nM; that for `Cc1nc(N)ncc1-c1cc2nc(-c3ccc(S(=O)(=O)N(C)C)cc3)[nH]c2cc1F` [Compound 22, 4-(6-(2-amino-4-methylpyr-imid-5-yl)-5-fluoro-1H-benzo [d]imidazol-2-yl)-N,N-dimeth-yl-benzenesulfonamide] was 0.1 nM; that for `CC(=O)n1nc(C)c(-c2cc3nc(-c4ccc(C(F)(F)F)cc4)[nH]c3cc2F)c1C` [Compound 23, 1-(4-(6-fluoro-2-(4-(trifluoro-methyl)phenyl)-1H-benzo[d]imidazol-5-yl)-3,5-dimethyl-1H-pyrazol-1-yl)ethan-1-one] was 0.29 nM. Take `Cc1nn(S(C)(=O)=O)c(C)c1-c1cc2nc(-c3ccc(C(F)(F)F)cc3)[nH]c2cc1F` [Compound 24, 6-(3,5-dimethyl-1-(methyl-sulfonyl)-1H-pyrazo1-4-yl)-5-fluoro-2-(4-(trifluoromethyl)-phenyl)-1H-benzo[d]imidazole]: the IC50 came to 0.2 nM. The IC50 values of the last two molecules are within 1.5-fold of each other.

Turning to `CC(C)n1nccc1-c1cc2nc(-c3ccc(S(=O)(=O)N(C)C)cc3)[nH]c2c(F)c1F` [Compound 25, 4-(4,5-difluoro-6-(1-isopropyl-1H-pyrazol-5-yl)-1H-benzo[d]imidazol-2-yl)-N,N-dimethyl-benzenesulfonamide], half-maximal inhibition (IC50) was put at 0.045 nM. In the case of `Cc1nc(N2CCOCC2)ncc1-c1cc2nc(-c3ccc(S(=O)(=O)N(C)C)cc3)[nH]c2cc1F` [Compound 26, 4-(5-fluoro-6-(4-methyl-2-morpholinopyrimid-5-yl)-1H-benzo[d]imidazol-2-yl)-N,N-dimethylbenzenesulfonamide], the IC50 was 0.081 nM. The value for `Cc1nc(N)ncc1-c1cc2nc(-c3ccc(S(=O)(=O)N(C)C)cc3)[nH]c2c(F)c1F` [Compound 27, 4-(6-(2-amino-4-methylpyr-imid-5-yl)-4,5-difluoro-1H-benzo[d]imidazol-2-yl)-N,N-dimethylbenzenesulfonamide] was 0.056 nM.

Take `Cc1ncc(-c2cc3nc(-c4ccc(S(=O)(=O)N(C)C)cc4)[nH]c3c(F)c2F)c(Cl)n1` [Compound 28, 4-(6-(4-chloro-2-methylpyr-imid-5-yl)-4,5-difluoro-1H-benzo[d]imidazol-2-yl)-N,N-dimethylbenzenesulfonamide]: the IC50 was 0.046 nM. This IC50 and that of the molecule before are within 1.5-fold of each other. `Cc1ncc(-c2cc3nc(-c4ccc(S(=O)(=O)N(C)C)cc4)[nH]c3cc2F)c(C)n1` [Compound 29, 4-(6-(2,4-dimethylpyrimid-5-yl)-5-fluoro-1H-benzo[d]imidazol-2-yl)-N,N-dimethyl-benzenesulfonamide]: the IC50 stood at 0.083 nM. Take `Cc1ncc(-c2cc3nc(-c4ccc(S(=O)(=O)N(C)C)cc4)[nH]c3cc2Cl)c(Cl)n1` [Compound 30, 4-(5-chloro-6-(4-chloro-2-methylpyrimid-5-yl)-1H-benzo [d]imidazol-2-yl)-N,N-dimeth-ylbenzenesulfonamide]: the IC50 was found to be 0.1 nM. As for `Cc1nc(N)ncc1-c1cc2nc(-c3ccc(S(=O)(=O)N(C)C)cc3)[nH]c2c(F)c1Cl` [Compound 31, 4-(6-(2-amino-4-methylpyr-imid-5-yl)-5-chloro-4-fluoro-1H-benzo[d]imidazol-2-yl)-N,N-dimethylbenzenesulfon-amide], the figure is 0.085 nM; as for `COc1nc(C)ncc1-c1cc2nc(-c3ccc(S(=O)(=O)N(C)C)cc3)[nH]c2cc1F` [Compound 32, 4-(5-fluoro-6-(4-methoxy-2-methylpyrimid-5-yl)-1H-benzo[d]imidazol-2-yl)-N,N-dimethylbenzenesulfonamide], 0.13 nM.
